Each molecule was assayed against T1, eEF2K (Homo sapiens, UniProt O00418) (assay: EF2K cell-based assay (P-EF2 AlphaLISA, 2-deoxyglucose stimulated MCF10A cells)). Conditions: 2.5 mM 2-deoxyglucose 4 h, phosphorylation of EF2 at Thr 56, pIC50 = -log IC50 (M), read-out: eEF2K_C_PThr56 pIC50 (converted).
T1 construct: in the immortalized epithelial breast cell lines, MCF10A; host or cells: MCF10A immortalized breast epithelial cells
T1 sequence (O00418 1-725): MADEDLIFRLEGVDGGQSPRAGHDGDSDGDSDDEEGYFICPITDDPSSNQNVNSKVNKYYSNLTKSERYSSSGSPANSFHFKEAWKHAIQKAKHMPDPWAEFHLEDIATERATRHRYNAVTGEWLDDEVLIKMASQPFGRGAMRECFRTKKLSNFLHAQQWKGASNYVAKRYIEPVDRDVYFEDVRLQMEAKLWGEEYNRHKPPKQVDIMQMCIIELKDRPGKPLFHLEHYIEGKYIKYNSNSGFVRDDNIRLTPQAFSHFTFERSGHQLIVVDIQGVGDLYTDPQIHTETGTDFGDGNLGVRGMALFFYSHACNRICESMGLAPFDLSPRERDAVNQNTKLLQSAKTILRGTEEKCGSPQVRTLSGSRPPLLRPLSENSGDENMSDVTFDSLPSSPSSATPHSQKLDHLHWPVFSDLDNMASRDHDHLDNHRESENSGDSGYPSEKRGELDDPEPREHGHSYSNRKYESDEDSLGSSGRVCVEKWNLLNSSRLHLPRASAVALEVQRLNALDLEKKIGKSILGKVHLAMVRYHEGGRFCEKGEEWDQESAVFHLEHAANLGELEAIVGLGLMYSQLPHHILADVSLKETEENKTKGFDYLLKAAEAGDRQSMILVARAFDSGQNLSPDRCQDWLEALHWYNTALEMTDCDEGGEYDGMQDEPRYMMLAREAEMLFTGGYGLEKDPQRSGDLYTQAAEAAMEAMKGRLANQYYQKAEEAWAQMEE
Method: In this assay, 2.5 mM 2-deoxyglucose was used to deplete intracellular ATP and activate 5′ adenosine monophosphate-activated protein kinase (AMPK) in the immortalized epithelial breast cell lines, MCF10A. MCF 10A cells were purchased from ATCC (CRL-10317).
MCF10A cells are seeded at a density of 1.25×10^5 Cells/ml at 100 μl/well in a 96-well plate and incubated for 24 hours (37° C., 5% CO2). Compound is added for 1 hour, and cell are stimulated with 2.5 mM of 2-deoxy-glucose for 4 hours. Medium is then removed, and cells are lysed in an ice-cold buffer M-PER (Thermo Scientific, 78501), containing protease and phosphatase inhibitors. P-EF2 levels are determined in these lysates using the P-EF2 AlphaLISA described above.

Row | IC50 [M] | Structure (SMILES)
1 | 6.31e-07 | O=C1CN2CCC(C2)Oc2cccc(c2)Nc2cc(ccn2)-c2cnc(nc2)NCCCN1 (centres unmarked) [Compound 93]
2 | 6.76e-07 | O=C1CN2CCCC(CC2)Oc2cccc(c2)Nc2cc(ccn2)-c2cnc(nc2)NCCCN1 (centres unmarked) [Compound 94]
3 | ~6.46e-07 | O=C1NCCCNc2ncc(cn2)-c2ccnc(c2)Nc2cccc(c2)OC2CCN(CC2)C12CC2 [Compound 95]
4 | 8.13e-08 | O=C1NCCC2CC(O)CN2c2ncc(cn2)-c2ccnc(c2)Nc2cccc(c2F)OC2CCN(CC2)C12CC2 (centres unmarked) [Compound 96]
5 | 3.31e-07 | O=C1NCCC2CC(O)CN2c2ncc(cn2)-c2ccnc(c2)Nc2cccc(c2)OC2CCN(CC2)C12CC2 (centres unmarked) [Compound 97]
6 | 1.07e-06 | O=C1CN2CCC(CC2)Oc2cccc(c2)Nc2cc(ccn2)-c2cnc(nc2)N2CC(O)CC2CCN1 (centres unmarked) [Compound 99]
7 | 1.32e-06 | CN1c2cccc(c2)Nc2cc(ccn2)-c2cnc(nc2)NCCCNC(=O)C2(CC2)N2CCC1CC2 [Compound 102]
8 | 1.62e-06 | CN1c2cccc(c2F)Nc2cc(ccn2)-c2cnc(nc2)NCCCNC(=O)C2(CC2)N2CCC1CC2 [Compound 103]
9 | 7.94e-07 | CN1c2cccc(c2F)Nc2cc(ccn2)-c2cnc(nc2)N2CC(O)CC2CCNC(=O)C2(CC2)N2CCC1CC2 (centres unmarked) [Compound 105]
10 | > 1e-05 | CC(=O)NCCCCC1C(=O)NCCCNc2ncc(cn2)-c2ccnc(c2)Nc2cccc(c2)CN2CCN1CC2 (centres unmarked) [Compound 109]
11 | 5.5e-06 | NCCCCC1C(=O)NCCCNc2ncc(cn2)-c2ccnc(c2)Nc2cccc(c2)CN2CCN1CC2 (centres unmarked) [Compound 113]
12 | 4.37e-07 | CC(=O)NCCCOCC1CN2CCN1Cc1cccc(c1)Nc1cc(ccn1)-c1cnc(nc1)NCCCNC(=O)C2 (centres unmarked) [Compound 115]
13 | > 1e-05 | O=C1CN2CCN(CC2)Cc2cccc(c2)Nc2cc(ccn2)-c2cnc(nc2)NC(CC2CC2)CCN1 (centres unmarked) [Compound 125]
14 | > 1e-05 | COCCN1CCNC(=O)CN2CCN(CC2)Cc2cccc(c2)Nc2cc(ccn2)-c2cnc(nc2)C1 [Compound 129]
15 | ~1e-05 | CC1NCCNC(=O)CN2CCN(CC2)Cc2cccc(c2)Nc2cc(ccn2)-c2cnc1nc2 (centres unmarked) [Compound 133]
16 | > 1e-05 | CC1NCCNC(=O)CN2CCN(CC2)Cc2cccc(c2)Nc2cc(ccn2)-c2cnc1nc2 (centres unmarked) [Compound 134]
17 | ~3.63e-06 | O=C1CN2CCN(CC2)Cc2cccc(c2)Nc2cc(ccn2)-c2ccc(nc2)N2CCCC2CCN1 (centres unmarked) [Compound 141]
18 | > 1e-05 | O=C1CN2CCN(CC2)Cc2cccc(c2)Nc2cc(ccn2)-c2ccc(nc2)CNCCN1 [Compound 145]
19 | 1.05e-06 | CCCN1CCNC(=O)CN2CCN(CC2)Cc2cccc(c2)Nc2cc(ccn2)-c2ccc(nc2)C1 [Compound 147]
20 | > 1e-05 | CC(=O)NCCCOCC1CN2CCN1Cc1cccc(c1)Nc1cc(ccn1)-c1cnc(nc1)NCCCNC(=O)C2 (centres unmarked) [Compound 149]

Each molecule was assayed against T2, EF2K (Homo sapiens, UniProt O00418) (assay: Biochemical EF2K lysate-based kinase assay (AlphaLISA p-eEF2 Thr56)). Conditions: LN-229 cell lysates, 10 mM ATP, pH 6.6; pIC50 = -log IC50 (M); read-out: eEF2K_C_alphalisa pIC50 (converted).
T2 construct: host or cells: LN-229 glioblastoma cell lysate
T2 sequence (O00418 1-725): T1 sequence (O00418 1-725)
Source text: LN-229 cells were purchased from ATCC (CRL-2611); these are glioblastoma cells. Cell lysates from LN229 were used in this kinase assay to provide both the kinase and the substrate (EF2). The AlphaLISA p-eEF2 (Thr56) detection assay was developed using a sandwich assay format with two specific antibodies recognizing different epitopes of the target, including one antibody against the phosphorylation site of interest. One anti-eEF2 antibody was conjugated onto AlphaLISA Acceptor beads, while the second antibody was biotinylated and captured by streptavidin coated Donor beads.
Compound was mixed with LN-229 cell lysates in the presence of a kinase buffer (e.g. HEPES) at a pH of 6.6, containing 10 mM Mg^2+ (e.g. magnesium acetate) and 10 mM adenosine-tri-phosphate (ATP) and incubated at room temperature for 15 minutes. The kinase reaction was stopped with excess ethylenediaminetetraacetic acid disodium salt and the biotinylated-anti phospho eEF2 antibody (3 nM) was added for 1 hour. Then the anti-EF2 acceptor beads (10 μg/ml) as well as the streptavidin coated donor beads (20 μg/ml) were added for 1 hour, and the AlphaLISA signal was measured in an Envision instrument once, left overnight, and measured again for the final read.

Row | IC50 [M] | Structure (SMILES)
21 | ~1.58e-06 | O=C1CN2CCN(CC2)Cc2cccc(c2)Nc2cc(ccn2)-c2cnc(nc2)C2CCCN2CCN1 (single isomer, unassigned) [Compound 138]
22 | 7.94e-08 | O=C1CN2CCC(C2)Oc2cccc(c2)Nc2cc(ccn2)-c2cnc(nc2)NCCCN1 (centres unmarked) [Compound 93]
23 | 6.61e-08 | O=C1CN2CCCC(CC2)Oc2cccc(c2)Nc2cc(ccn2)-c2cnc(nc2)NCCCN1 (centres unmarked) [Compound 94]
24 | 6.76e-09 | O=C1NCCCNc2ncc(cn2)-c2ccnc(c2)Nc2cccc(c2)OC2CCN(CC2)C12CC2 [Compound 95]
25 | 3.98e-09 | O=C1NCCC2CC(O)CN2c2ncc(cn2)-c2ccnc(c2)Nc2cccc(c2F)OC2CCN(CC2)C12CC2 (centres unmarked) [Compound 96]
26 | 1.82e-09 | O=C1NCCC2CC(O)CN2c2ncc(cn2)-c2ccnc(c2)Nc2cccc(c2)OC2CCN(CC2)C12CC2 (centres unmarked) [Compound 97]
27 | 3.09e-08 | O=C1CN2CCC(CC2)Oc2cccc(c2)Nc2cc(ccn2)-c2cnc(nc2)N2CC(O)CC2CCN1 (centres unmarked) [Compound 99]
28 | 8.13e-08 | CN1c2cccc(c2)Nc2cc(ccn2)-c2cnc(nc2)NCCCNC(=O)C2(CC2)N2CCC1CC2 [Compound 102]
29 | 1.91e-07 | CN1c2cccc(c2F)Nc2cc(ccn2)-c2cnc(nc2)NCCCNC(=O)C2(CC2)N2CCC1CC2 [Compound 103]
30 | 3.55e-07 | CC(=O)NCCCCC1C(=O)NCCCNc2ncc(cn2)-c2ccnc(c2)Nc2cccc(c2)CN2CCN1CC2 (centres unmarked) [Compound 109]
31 | 1.51e-07 | CC(=O)NCCCOCC1CN2CCN1Cc1cccc(c1)Nc1cc(ccn1)-c1cnc(nc1)NCCCNC(=O)C2 (centres unmarked) [Compound 115]
32 | 5.75e-06 | O=C1CN2CCN(CC2)Cc2cccc(c2)Nc2cc(ccn2)-c2cnc(nc2)NC(CC2CC2)CCN1 (centres unmarked) [Compound 125]
33 | 2.69e-05 | COCCN1CCNC(=O)CN2CCN(CC2)Cc2cccc(c2)Nc2cc(ccn2)-c2cnc(nc2)C1 [Compound 129]
34 | > 3.02e-05 | CC1NCCNC(=O)CN2CCN(CC2)Cc2cccc(c2)Nc2cc(ccn2)-c2cnc1nc2 (centres unmarked) [Compound 133]
35 | 1.12e-05 | CC1NCCNC(=O)CN2CCN(CC2)Cc2cccc(c2)Nc2cc(ccn2)-c2cnc1nc2 (centres unmarked) [Compound 134]
36 | ~5.5e-06 | O=C1CN2CCN(CC2)Cc2cccc(c2)Nc2cc(ccn2)-c2ccc(nc2)CNCCN1 [Compound 145]
37 | 3.98e-07 | CCCN1CCNC(=O)CN2CCN(CC2)Cc2cccc(c2)Nc2cc(ccn2)-c2ccc(nc2)C1 [Compound 147]
38 | 6.31e-06 | CC(=O)NCCCOCC1CN2CCN1Cc1cccc(c1)Nc1cc(ccn1)-c1cnc(nc1)NCCCNC(=O)C2 (centres unmarked) [Compound 149]

Reference: patent US20170022201A1, “MACROCYLIC PYRIDINE DERIVATIVES” (Janssen Pharmaceutica NV, priority 2014, published 2017)
